Reference: US20020010209A1, “Use of benzopyranols to treat neurological disorders” (priority 1996, published 2002)

Tested on: trigemino-vascular system
Test: Trigeminal nerve model in anaesthetised cats (TGN stimulation-induced reduction in carotid vascular resistance)
Type: in vivo, cat
Conditions: for % Change in TGN-reduction in carotid vascular resistance at 4 hours following continuous iv infusion (mean ± sem) / % Changes of TGW-induced reduction in carotid vascular resistance 3 hours (mean ± sem): anaesthetised cat
Description: Trigeminal nerve model in anaesthetised cats
Cats were anaesthetised with α-chloralose (90-110 mg/kg i.v.) and artificially respired with room air. Body temperature was maintained at 37-38 C. A femoral artery was cannulated for recording of blood pressure and heart rate. Arterial blood flow was recorded by a Doppler flow probe placed around the right common carotid artery. Bipolar stainless electrodes were stereotaxically placed into each trigeminal ganglion. Guanethidine (3 mg/kg i.v.) was then administered and 45 min allowed for stabilisation. […]

[1] = continuous iv infusion 3.4 μmol/h, at 4 hours
[2] = intraduodenal administration 10 mg.kg, after 3 hours
[3] = intravenous administration at 3.4 μmol/h, at 4 hours

Row | Structure (SMILES) | % Change in TGN-reduction in carotid vascular resistance at 4 hours following continuous iv infusion (mean ± sem) [1] [%] | % Changes of TGW-induced reduction in carotid vascular resistance 3 hours (mean ± sem) (intraduodenal 10 mg/kg in labrasol) [%] | inhibition of TGN-induced reduction in carotid vascular resistance (in words) [2] | inhibition of TGN-induced reduction in carotid vascular resistance (in words) [3] | effects on TGN stimulation-induced reductions in carotid vascular resistance (in words) (guanethidine treated anaesthetised cat) | inhibition of trigeminal nerve mediated responses (guanethidine treated anaesthetised cat, intraduodenal bolus 10 mg/kg, 2 hours post administration, n=4) [%] | % Change in TGN-reduction in carotid vascular resistance at 4 hours following continuous iv infusion (mean ± sem) (continuous iv infusion 11 μmol/h, at 4 hours) [%] | % Changes of TGW-induced reduction in carotid vascular resistance 3 hours (mean ± sem) (intraduodenal 10 mg/kg in methylcellulose) [%]
1 | CC(=O)c1ccc2c(c1)[C@H](NC(=O)c1ccc(F)cc1)[C@@H](O)C(C)(C)O2 (relative stereo) [Compound 1, trans-6-acetyl-4S-(4-fluorobenzoylamino)-3,4-dihydro-2,2-dimethyl-2H-1-benzopyran-3R-ol] | −29.1 ± 3.7 | −43 ± 12.9 | significant inhibition | significant inhibition |  |  |  | 
2 | CC(=O)c1ccc2c(c1)[C@H](NC(=O)c1cc(F)cc(F)c1)[C@@H](O)C(C)(C)O2 (relative stereo) [Compound 3, trans-6-acetyl-4S-(3,5-difluorobenzoylamino)-3,4-dihydro-2,2-dimethyl-2H-1-benzopyran-3R-ol] |  |  |  |  | marked effects | 77 |  | 
3 | CC(=O)c1ccc2c(c1)[C@H](NC(=O)c1ccc(F)c(Cl)c1)[C@H](O)C(C)(C)O2 (relative stereo) [Compound 2, cis-6-acetyl-4S-(3-chloro-4-fluorobenzoylamino)-3,4-dihydro-2,2-dimethyl-2H-1-benzopyran-3S-ol] | −30.0 ± 6.6 |  | significant inhibition | significant inhibition |  |  | −21.8 ± 14 | −69
